Measurements from US11642392B2, “Therapeutic agent of uremia containing alarin as the main ingredient” (JU TIDE CO., LTD., priority 2017, dated 2023).

Key:
[1] = tested on: Cisplatin-induced uremia in the Sprague-Dawley rat model; details: single dose of 10 μg/1 mL/head and 20 μg/1 mL/head IV, vs control group of excipient
Experimental: (§1) The intravenous administration was done by fixing an animal into a correction frame, and slowly injecting at a rate of within 1 mL/min through the micro vein using a syringe equipped with 26 gauges needle. The intraperitoneal administration was performed by fixing the animal by a transdermal skin fixation method and intraperitoneally injecting using a syringe equipped with 26 gauges needle.
Serum obtained from the centrifugation was tested for blood urea nitrogen (BUN) and […] (CRE) using a blood biochemical analyzer (7180 Hitachi, Japan).

[2] = tested on: Cisplatin-induced uremia in the Sprague-Dawley rat model
Experimental: as §1
Finally, animals were inhaled with ether on an necropsy day to anesthetize and euthanize, and kidneys were extracted and fixed in a 10% neutral buffered formalin solution, and the fixed tissues were cut, dehydrated, paraffin embedded and hematoxylin & eosin stained to make a specimens for histopathological examination after these histological treatment. And then, the obtained specimen is subjected to speculum using an optical microscope (Olympus BX53, Japan).

In the case of “alarin (human) trifluoroacetate salt [test substance]”, the blood biochemical level [1] is reported as “tendency to improve”, the “histopathological examination results, lesion level” value ([2]; 10 and 20 μg/1 mL/head IV single dose, across doses) is reported as “dose-related change trend and significant changes in lesion level” and the “level of lesion (histopathological examination of kidney)” value ([2]; high dose group (20 μg/1 mL/head IV, single dose), necropsy Day 7, H&E, vs control group) is reported as “significantly lower”.
